Where two headings read alike, the source gives them in different places. Bounds are passed on as bounds.

Holding throughout (format): cell-based
For experiment [1], the system named is S. aureus clinical isolates. Description: MIC90 studies: fluoroquinolone susceptibility of clinical isolate panel with EPI. Particulars: Staphylococcus aureus. Here is the method:
(§1) Susceptibility studies with large panels of resistant clinical isolates were performed at Focus Technologies, Herndon, Va. according to NCCLS protocols (National Committee for Clinical Laboratory Standards, supra).
(§2) To be useful in combination therapy, an EPI needs to substantially reduce the MIC of an antibiotic to within the range of clinical susceptibility. Because many different resistance mechanisms are often present in clinical isolates, including the likelihood of multiple target-based mutations in addition to efflux mutations, the barrier to antibiotic efficacy is much greater. […] Oxacillin and vancomycin MICs were also determined to identify which isolates were methicillin-resistant (S. aureus) and vancomycin-resistant (E. faecalis).

Experiment [2] deals with E. faecalis clinical isolates. Described as above. The note with it: Enterococcus faecalis. How it is done: as §1, §2
For a further experiment, the system named is S. aureus ATCC 29213. Description: MIC by NCCLS microdilution, antibacterial agents with and without EPI. The note with it: for MIC: Staphylococcus aureus; for MIC in the presence of 4X MEC of EPI, VX-710: VX-710 100 μg/ml; for MIC in the presence of 4X MEC of EPI, VX-853: VX-853 6.25 μg/ml; for MIC in the presence of 4X MEC of EPI, reserpine: reserpine 25 μg/ml. Here is the method:
3% sterile laked horse blood (Quad Five, Ryegate, Mont.) was added to assays for E. faecalis and S. Pneumoniae. A final concentration of 1% DMSO was present in all assays. […]
A-106 and C-9 were tested at their respective MECs in combination with a variety of different classes of antibiotics against S. aureus ATCC 29213 (Table 2).
(In general: Dilution methods test growth across graded concentrations, often in twofold steps.)

For experiment [3], the system named is S. aureus SA-1199B (NorA overproducing). Description: MIC of fluoroquinolones with and without EPI. Particulars: S. aureus SA-1199B (NorA overproducer, GrlA A116E); no EPI. The source says:
(§3) A variety of strains may be used in these experiments, including, but not limited to, S. aureus ATCC 29213, E. faecalis ATCC 29212, and S. pneumoniae, S. aureus strains SA-1199, SA-1199B, SA-8325-4, and SA-K2068. S. aureus ATCC 29213, E. faecalis ATCC 29212, and S. pneumoniae ATCC 10015 were obtained from the American Type Culture Collection (Manassas, Va.). S. aureus strains SA-1199 (clinical isolate, susceptible), SA-1199B (SA-1199, NorA overproducing, also has A116E GrlA mutation), SA-8325-4 (NCTC 8325 cured of prophages), SA-K2068 (SA-8325-4, non-NorA multidrug efflux pump overproducing mutation) were obtained from Glenn Kaatz (Kaatz et al., “Identification and characterization of a novel efflux-related multidrug resistance phenotype in Staphylococcus aureus”, J. Antimicrob. Chemother. 50:833-838 (2002); 1993; Kaatz et al., “Phenothiazines and thioxanthenes inhibit multidrug efflux pump activity in Staphylococcus aureus”, Antimicrob. Agents Chemother. 47:719-726, Kaatz et al., “Efflux-mediated fluoroquinolone resistance in Staphylococcus aureus. Antimicrob. Agents Chemother.”, 37:1086-1094, 1993)).
(§4) 3% sterile laked horse blood (Quad Five, Ryegate, Mont.) was added to assays for E. faecalis and S. Pneumoniae. A final concentration of 1% DMSO was present in all assays.
(§5) Recent more hydrophobic fluoroquinolones such as gatifloxacin and moxifloxacin are less well recognized by NorA; however, recently one other pump in S. aureus has been described which also recognizes hydrophobic fluoroquinolones (Kaatz et al. 2002, supra). To investigate the potential of A-106 and C-9 to block the efflux of several fluoroquinolones in cells with constituitively over-expressed efflux pumps, we used S. aureus strains SA-1199B and K2068 (Table 3). […] Kaatz et al., “Phenothiazines and thioxanthenes inhibit multidrug efflux pump activity in Staphylococcus aureus”, Antimicrob. Agents Chemother. 47:719-726 (2003).

The test system of experiment [4] is S. aureus SA-K2068 (non-NorA multidrug efflux pump overproducing). Description: microbe, parasite or virus in culture. Particulars: S. aureus K2068 (non-NorA MDR pump overproducer); no EPI.
Excerpt: as §3, §4, §5

In experiment [5] the test system is S. aureus SA-1199 (clinical isolate, susceptible). As to the kind of experiment: MIC of fluoroquinolones with and without EPI. Particulars: S. aureus SA-1199; no EPI.
Excerpt: as §3, §4

[6] abbreviates: ATCC29213, antibacterial agent alone, read-out: MIC, No EPI.

In general, MIC refers to the lowest concentration found to suppress growth. `Cc1onc(-c2ccccc2)c1C(=O)N[C@@H]1C(=O)N2[C@@H]1SC(C)(C)[C@@H]2C(=O)O` [Oxacillin]: the MIC in experiment [1] (S. aureus clinical isolate 1) was 16 µg/mL; in experiment [1] (S. aureus clinical isolate 2), above 64 µg/mL; in experiment [1] (S. aureus clinical isolate 3), 32 µg/mL; in experiment [1] (S. aureus clinical isolate 4) it was above 64 µg/mL; in experiment [1] (S. aureus clinical isolate 5), 2 µg/mL; in experiment [1] (S. aureus clinical isolate 6) it was 16 µg/mL. The MIC is 2 µg/mL in experiment [1] (S. aureus clinical isolate 7); 4 µg/mL in experiment [1] (S. aureus clinical isolate 8); 2 µg/mL in experiment [1] (S. aureus clinical isolate 9); above 64 µg/mL in experiment [1] (S. aureus clinical isolate 10); above 64 µg/mL in experiment [1] (S. aureus clinical isolate 11); 2 µg/mL in experiment [1] (S. aureus clinical isolate 12). In addition, the MIC in experiment [1] (S. aureus clinical isolate 13), in experiment [1] (S. aureus clinical isolate 14) and in experiment [1] (S. aureus clinical isolate 15) was above 64 µg/mL in each case.

With `CN[C@H](CC(C)C)C(=O)N[C@H]1C(=O)N[C@@H](CC(N)=O)C(=O)N[C@H]2C(=O)N[C@H]3C(=O)N[C@H](C(=O)N[C@H](C(=O)O)c4cc(O)cc(O)c4-c4cc3ccc4O)[C@H](O)c3ccc(c(Cl)c3)Oc3cc2cc(c3O[C@@H]2O[C@H](CO)[C@@H](O)[C@H](O)[C@H]2O[C@H]2C[C@](C)(N)[C@H](O)[C@H](C)O2)Oc2ccc(cc2Cl)[C@H]1O` [Vancomycin], the minimum inhibitory concentration (MIC) in experiment [2] (read-out: MIC, No EPI, E. faecalis clinical isolate 1) is 1 µg/mL; in experiment [2] (read-out: MIC, No EPI, E. faecalis clinical isolate 2), 4 µg/mL; in experiment [2] (read-out: MIC, No EPI, E. faecalis clinical isolate 3), above 256 µg/mL; in experiment [2] (read-out: MIC, No EPI, E. faecalis clinical isolate 4), 1 µg/mL; in experiment [2] (read-out: MIC, No EPI, E. faecalis clinical isolate 5), 2 µg/mL; in experiment [2] (read-out: MIC, No EPI, E. faecalis clinical isolate 6) it was 2 µg/mL. The minimum inhibitory concentration (MIC) in experiment [2] (read-out: MIC, No EPI, E. faecalis clinical isolate 7) came out at 1 µg/mL; in experiment [2] (read-out: MIC, No EPI, E. faecalis clinical isolate 8), 128 µg/mL; in experiment [2] (read-out: MIC, No EPI, E. faecalis clinical isolate 9), 1 µg/mL; in experiment [2] (read-out: MIC, No EPI, E. faecalis clinical isolate 10) it was 2 µg/mL; in experiment [2] (read-out: MIC, No EPI, E. faecalis clinical isolate 11) it was 16 µg/mL; in experiment [2] (read-out: MIC, No EPI, E. faecalis clinical isolate 12) it was 4 µg/mL. Besides, the MIC is 2 µg/mL in experiment [2] (read-out: MIC, No EPI, E. faecalis clinical isolate 13); 1 µg/mL in experiment [2] (read-out: MIC, No EPI, E. faecalis clinical isolate 14); 4 µg/mL in experiment [2] (read-out: MIC, No EPI, E. faecalis clinical isolate 15); 0.5 µg/mL in experiment [2] (read-out: MIC, No EPI, E. faecalis clinical isolate 16); 4 µg/mL in experiment [2] (read-out: MIC, No EPI, E. faecalis clinical isolate 17); above 256 µg/mL in experiment [2] (read-out: MIC, No EPI, E. faecalis clinical isolate 18). For the same compound, the MIC in experiment [2] (read-out: MIC, No EPI, E. faecalis clinical isolate 19) amounted to 2 µg/mL; in experiment [2] (read-out: MIC, No EPI, E. faecalis clinical isolate 20) it was 2 µg/mL; in experiment [2] (read-out: MIC, No EPI, E. faecalis clinical isolate 21) it was 1 µg/mL; in experiment [2] (read-out: MIC, No EPI, E. faecalis clinical isolate 22), 1 µg/mL; in experiment [2] (read-out: MIC, No EPI, E. faecalis clinical isolate 23), 2 µg/mL; in experiment [2] (read-out: MIC, No EPI, E. faecalis clinical isolate 24), 1 µg/mL. In addition, the MIC in experiment [2] (read-out: MIC, No EPI, E. faecalis clinical isolate 25) is 1 µg/mL; in experiment [2] (read-out: MIC, No EPI, E. faecalis clinical isolate 26), above 256 µg/mL.

Turning to `CC[C@H]1OC(=O)[C@H](C)[C@@H](O[C@H]2C[C@@](C)(OC)[C@@H](O)[C@H](C)O2)[C@H](C)[C@@H](O[C@@H]2O[C@H](C)C[C@H](N(C)C)[C@H]2O)[C@](C)(O)C[C@@H](C)CN(C)[C@H](C)[C@@H](O)[C@]1(C)O` [azithromycin], in the experiment with S. aureus ATCC 29213 (setting [6]), the MIC was determined as 1 µg/mL. In the experiment with S. aureus ATCC 29213, the “MIC in the presence of 4X MEC of EPI, VX-710” value (“MIC in the presence … VX-710” below) worked out at 1 µg/mL; the “MIC in the presence of 4X MEC of EPI, VX-853” value (“MIC in the presence … VX-853” below) is 1 µg/mL; the “MIC in the presence of 4X MEC of EPI, reserpine” value (shortened to “MIC in the presence … reserpine”) is 1 µg/mL.

As to `CO/N=C(\C(=O)N[C@@H]1C(=O)N2C(C(=O)O)=C(CSc3nc(=O)c(=O)[nH]n3C)CS[C@H]12)c1csc(N)n1` [ceftriaxone], the MIC in the experiment with S. aureus ATCC 29213 (setting [6]) was 4 µg/mL. In the experiment with S. aureus ATCC 29213, the “MIC in the presence … VX-710” value came to 4 µg/mL; the “MIC in the presence … VX-853” value was 4 µg/mL; the “MIC in the presence … reserpine” value was 4 µg/mL.

With `O=C(N[C@H](CO)[C@H](O)c1ccc([N+](=O)[O-])cc1)C(Cl)Cl` [chloramphenicol], in the experiment on S. aureus ATCC 29213 (setting [6]), the MIC was found to be 8 µg/mL. For the same compound, in the experiment with S. aureus ATCC 29213, the “MIC in the presence … VX-710” value is 8 µg/mL; the “MIC in the presence … VX-853” value is 8 µg/mL; the “MIC in the presence … reserpine” value turned out to be 8 µg/mL.

Turning to `CC[C@H]1OC(=O)[C@H](C)[C@@H](O[C@H]2C[C@@](C)(OC)[C@@H](O)[C@H](C)O2)[C@H](C)[C@@H](O[C@@H]2O[C@H](C)C[C@H](N(C)C)[C@H]2O)[C@](C)(O)C[C@@H](C)C(=O)[C@H](C)[C@@H](O)[C@]1(C)O` [erythromycin], in the experiment on S. aureus ATCC 29213 (setting [6]), the MIC turned out to be 0.25 µg/mL. For the same compound, in the experiment on S. aureus ATCC 29213, the “MIC in the presence … VX-710” value is 0.25 µg/mL; the “MIC in the presence … VX-853” value came to 0.25 µg/mL; the “MIC in the presence … reserpine” value came out at 0.25 µg/mL.

As to `CC(=O)NC[C@H]1CN(c2ccc(N3CCOCC3)c(F)c2)C(=O)O1` [linezolid], in the experiment with S. aureus ATCC 29213 (setting [6]), the MIC worked out at 4 µg/mL. In addition, in the experiment on S. aureus ATCC 29213, the “MIC in the presence … VX-710” value came out at 4 µg/mL; the “MIC in the presence … VX-853” value is 4 µg/mL; the “MIC in the presence … reserpine” value is 4 µg/mL.

In the case of `CO[C@@H]1[C@@H](OC(N)=O)[C@@H](O)[C@H](Oc2ccc3c(O)c(NC(=O)c4ccc(O)c(CC=C(C)C)c4)c(=O)oc3c2C)OC1(C)C` [novobiocin], the MIC with S. aureus ATCC 29213 (setting [6]) was 0.125 µg/mL. Besides, in the experiment on S. aureus ATCC 29213, the “MIC in the presence … VX-710” value was 0.063 µg/mL; the “MIC in the presence … VX-853” value turned out to be 0.063 µg/mL; the “MIC in the presence … reserpine” value stood at 0.063 µg/mL.

For `[Br-].c1ccc([P+](c2ccccc2)(c2ccccc2)c2ccccc2)cc1` [tetraphenylphosphonium bromide], in the experiment with S. aureus ATCC 29213 (ATCC29213, read-out: MIC, No EPI, antibacterial agent alone), the MIC was 16 µg/mL. In addition, in the experiment with S. aureus ATCC 29213, the “MIC in the presence … VX-710” value worked out at 4 µg/mL; the “MIC in the presence … VX-853” value turned out to be 8 µg/mL; the “MIC in the presence … reserpine” value was 8 µg/mL.

Take gentamicin [reference compound]: the “MIC of antibacterial agent, EPI none” value with S. aureus ATCC 29213 (S. aureus ATCC 29213, no EPI) is 0.5 µg/mL; in experiment [3] it was 0.5 µg/mL; in experiment [4], 0.063 µg/mL; in experiment [5], 0.5 µg/mL. Further, the “MIC in the presence … VX-853” value in the experiment on S. aureus ATCC 29213 is 0.25 µg/mL. Besides, the “MIC, No EPI” value in the experiment on S. aureus ATCC 29213 (antibacterial agent alone) amounted to 0.5 µg/mL.

Values taken from patent US20090291964A1, “Potentiators of Antibacterial Activity” (priority 2003, published 2009).
